The test system of assay [1] is TRAF3. Description: TRAF3 western blot in TWEAK-stimulated PBMCs from healthy donors. The class given is cell-based, Human. The note with it: paricalcitol 15 umol/L 48 hours before TWEAK 100 ng/ml for 24 hours.
Assay [2] deals with TRAF3. The experiment in a line: TRAF3 western blot in TWEAK-stimulated HK2 cells. The class given is cell-based, Human. The note with it: paricalcitol 15 umol/L 48 hours before TWEAK 100 ng/ml for 24 hours. As to the method:
Human kidney proximal tubule epithelial cells (HK2 cell line, ATCC CRL-2190) were grown in RPMI 1640 with 10% fetal bovine serum (FBS), 1% glutamine, 100 U/ml penicillin, 100 µg/ml streptomycin, 5 µg/ml insulin-transferrin-selenite and 36 ng/ml hydrocortisone in 5% CO2 at 37° C. When cells reached 60 to 70% confluence, they were serum-depleted for 24 hours before the experiment.
Cells were stimulated with 100ng/ml recombinant human soluble TWEAK (Millipore) or p-200 µg/ml cresyl-sulfate (Raymond Vanholder and Griet Glorieux, University of Gent, Belgium). Concentrations of TWEAK and p-cresyl-sulfate were based on previously published dose-response experiments (Poveda et al. 2014; Sanz et al. 2008). […] DMSO, used as a solvent in some cases, had no effect on cell viability or on gene expression levels.
For western blot, cell (25 µg/lane) and kidney (100-150 µg/lane) protein extracts were separated on 6%-12% polyacrylamide-SDS gels under reducing conditions. […] Autoradiographs were scanned using the Gel Doc™ EZ imager and analyzed with the Image Lab 3.0 software (BioRad).
On the technique in general: In western blotting, separated proteins are transferred to a membrane and probed.

Another assay relates to NF-κB2. Description: Non-canonical NF-κB2 activation and NF-κB2 targets in obstructed kidneys (UUO) in mice. It counts as in vivo. The note with it: paricalcitol 750 ng/kg/day. As to the method: All animal procedures were performed according to the guidelines of animal research in the European Community and with prior approval by the Ethics Committee of the Health Research of the IIS-Fundacion Jiménez Díaz. For in vivo studies, mice received a daily intraperitoneal injection of the VDRA Paricalcitol starting 48 hours prior to induction of kidney damage.
At the time of sacrifice, animals were anesthetized with 5 mg/kg xylazine (Rompun, Bayer AG) and 35 mg/kg ketamine (Ketolar, Pfizer) and the kidneys perfused in situ with cold saline before removal. Then, kidney portions were fixed in formalin buffer for immunohistochemistry studies or immediately frozen in liquid nitrogen for gene and protein studies.
Unilateral ureteral obstruction (UUO) was established in male C57BL/6 mice, under isoflurane-induced anesthesia. The left ureter was ligated with silk (5/0) at two locations and cut between ligatures to prevent urinary tract infection (obstructed kidney).(Ucero et al 2014; Rodrigues-Díez et al 2013) Two groups were studied; untreated or paricalcitol treated (750 ng/kg/day, i.p., Abbot), n=6-8 mice per group, starting 48 hours before surgery. Studies compared both kidneys (contralateral vs. obstructed) in each mouse.
Paraffin-embedded kidney sections (3 µm) were stained using conventional methods. […] For each sample (processed by duplicate in a blinded manner), the average value was obtained from the analysis of 4 fields (20X objective) as density/mm2 or percentage stained area vs total analyzed area. Data are expressed as fold increase over control mice, as mean ± SEM of 8-10 animals per group. […]
For western blot, cell (25 µg/lane) and kidney (100-150 µg/lane) protein extracts were separated on 6%-12% polyacrylamide-SDS gels under reducing conditions. […] Autoradiographs were scanned using the Gel Doc™ EZ imager and analyzed with the Image Lab 3.0 software (BioRad). […]

Turning to `C[C@H](/C=C/[C@H](C)C(C)(C)O)[C@H]1CC[C@H]2/C(=C/C=C3C[C@@H](O)C[C@H](O)C3)CCC[C@]12C` [paricalcitol], in the assay on TRAF3 [1], the “TWEAK-induced TRAF3 degradation” value was “inhibited”. For the same molecule, the “TWEAK-induced TRAF3 protein levels” value in the assay with TRAF3 [2] is “restored TWEAK-induced TRAF3 protein levels to values similar to control-untreated cells”. In the assay on NF-κB2, the “increased RelB levels and its nuclear localization” value was “prevented”; the “p100/p52 processing, and p52 nuclear translocation and DNA binding activity” value is reported as “blocked”. Also, the “increased expression of specific NF-κB2-regulated chemokines, including CCL21A and CCL19” value with NF-κB2 (real time PCR) is reported as “prevented”.

Source of the values: patent publication EP3748362A1, “IN VITRO METHOD FOR DETECTING RENAL DISEASE” (Fundacion Instituto De Investigacion Sanitaria Fundacion …, priority 2019, dated 2020).
